According to publication PMC3448645, “Functional Studies of ssDNA Binding Ability of MarR Family Protein TcaR from Staphylococcus epidermidis” (PLoS ONE, 2012):

What was measured:
[1] = target: T1, TcaR (Staphylococcus epidermidis, UniProt Q5HLN6); test: EMSA, inhibition of TcaR-GC33 ssDNA complex; assay type: binding; conditions: 1 uM GC33 ssDNA, 2 uM TcaR dimer, 2 or 20 uM antibiotic, pH 8.0, room temperature
T1 construct: homodimer

[2] = target: T1, TcaR; test: EMSA, inhibition of TcaR-GC33 ssDNA complex; also SPR; assay type: binding; conditions: 1 uM GC33 ssDNA, 2 uM TcaR dimer, 2 or 20 uM antibiotic, pH 8.0, room temperature; SPR: 64 nM TcaR, 640 nM antibiotic, pH 7.5, 25 °C

Structure (SMILES) | EMSA, inhibition of TcaR-GC33 ssDNA complex [1] | EMSA, inhibition of TcaR-GC33 ssDNA complex; also SPR [2]
O=C(N[C@H](CO)[C@H](O)c1ccc([N+](=O)[O-])cc1)C(Cl)Cl [chloramphenicol] | kanamycin, chloramphenicol and gentamycin interfered with the ssDNA (GC33) binding activity of TcaR | 
NC[C@H]1O[C@H](O[C@H]2[C@H](O)[C@@H](O[C@H]3O[C@H](CO)[C@@H](O)[C@H](N)[C@H]3O)[C@H](N)C[C@@H]2N)[C@H](O)[C@@H](O)[C@@H]1O [kanamycin] |  | kanamycin, chloramphenicol and gentamycin interfered with the ssDNA (GC33) binding activity of TcaR
